These results are taken from patent US20060035810A1, “Regulation of ins(3456)p4 signalling by a reversible kinase phosphatase and methods and compositions related thereto” (priority 2002, published 2006).

Test [1] deals with T1, Ins(1,3,4,5,6)P5 1-phosphatase activity of Ins(3,4,5,6)P4 kinase (Homo sapiens, UniProt Q13572).
T1 construct: made in house; host or cells: E. coli
T1 sequence (Q13572 1-414): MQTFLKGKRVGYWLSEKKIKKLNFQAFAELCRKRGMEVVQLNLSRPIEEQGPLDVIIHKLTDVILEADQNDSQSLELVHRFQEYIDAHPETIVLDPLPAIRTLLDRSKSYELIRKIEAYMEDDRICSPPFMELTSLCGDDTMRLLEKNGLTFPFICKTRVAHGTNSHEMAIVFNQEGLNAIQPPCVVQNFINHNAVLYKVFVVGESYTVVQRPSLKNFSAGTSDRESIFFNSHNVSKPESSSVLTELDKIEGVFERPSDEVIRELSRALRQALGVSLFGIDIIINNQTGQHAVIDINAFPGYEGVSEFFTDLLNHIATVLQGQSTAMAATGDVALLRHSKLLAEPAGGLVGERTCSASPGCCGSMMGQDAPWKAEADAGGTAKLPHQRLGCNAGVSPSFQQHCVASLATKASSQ
Nature of the test: Inositol phosphate phosphatase activity assay with ADP (HPLC). In kind it is biochemical. The method, then: Ins(3,4,5,6)P4 kinase (0.4 μg) was incubated for 30 min in 100 μl phosphatase assay buffer (see Methods) either with (closed circles) or without (open circles) 5 mM ADP plus trace-amounts of either [^3H]Ins(1,3,4,5,6)P5 (panel A) [^3H]Ins(1,3,4,6)P4 (panel B), or [^3H]Ins(1,3,4,5)P4 (panel C). Samples were analyzed by HPLC (see Methods). The elution positions of Ins(1,3,4)P3 and Ins(3,4,5,6)P4 were verified with genuine standards. The elution positions of Ins(1,3,4,6)P4 (106 min, panel B) and of Ins(1,3,4,5)P4 (110 min, panel C) exclude these as products of InsP5 dephosphorylation (panel A).
Additional incubations were performed with 5 μM [^3H]Ins(1,3,4)P3 (approx. 1200 d.p.m.) plus either no Ins(1,3,4,5,6)P5 (open circles) or 5 μM non-radiolabeled Ins(1,3,4,5,6)P5 (closed circles); these reactions were assayed by HPLC (Synchropak Q100 column) and the InsP4 region of the chromatogram is shown in Panel B.
Inositol phosphate phosphatase activity was assayed in buffer containing 100 mM KCl, 20 mM HEPES pH 7.2, 5 mM ADP, 6 mM MgSO4, 0.3 mg/ml bovine serum albumin. Assays were acid-quenched, neutralized and analyzed by HPLC using a Synchropak Q100 columm (Caffrey et al., “Expanding Coincident Signaling by PTEN through its Inositol 1,3,4,5,6-Pentakisphosphate 3-phosphatase Activity,” FEBS Lett 499: 6-10 (2001)); 1 ml fractions were collected for 70 min., followed by 0.5 ml fractions. Inositol phosphate kinase activity was assayed in buffer containing 100 mM KCl, 20 mM HEPES pH 7.2, 5 mM ATP, 10 mM phosphocreatine, 6 mM MgSO4, 10 μg/ml creatine phosphokinase (Calbiochem), 0.3 mg/ml bovine serum albumin. Some assays were acid-quenched and analyzed by HPLC using a Synchropak Q100 column. Other reactions were heat-inactivated (95° C., 3 min) and analyzed by a metal dye detection, HPLC method (Mayr, “A novel metal-dye detection sysytem permits picomolar-range h.p.l.c. analysis of inositol polyphosphates from non-radioactively labelled cell or tissue specimens,” Biochem J 254: 585-591 (1988); Adelt et al., “Enzyme-assisted total synthesis of the optical antipodes D-myo-inositol 3,4,5-trisphosphate and D-myo-inositol 1,5,6-trisphosphate: aspects of their structure-activity relationship to biologically active inositol phosphates,” J Med Chem 42: 1262-1273 (1999)).

Test [2] has as its system calcium-activated Cl− channels. Description: Whole-cell Cl− current in CFPAC-1 cells (bio-assay for Ins(3,4,5,6)P4). The test is classed as cell-based, human. As to conditions: 10 μM in CFPAC-1 cells; control 54±3 pA/pF; +40 mV, free [Ca2+] 0.5 μM. As for the experimental part:
T84 cells were detached by incubation with 0.25% (w/v) trypsin/0.02% (w/v) EDTA for 5-6 min. After trypsin removal, 200 μl aliquots (1.5×10^6/ml) were seeded into the circular wells (area=0.45 cm^2) of permeable supports, made by gluing (Silastic® sealant, Dow Corning, Midland, Mich.) a Sylgard® ring to filters composed of mixed cellulose esters (Millipore Corp., Bedford, Mass.). Seeded supports were floated on culture medium and incubated for 11-14 days before being mounted in modified Snapwell holders in Using chambers (EasyMount System, Physiologics Instruments, San Diego, Calif.). Transcellular Cl^− flux was then recorded as the short-circuit current as previously described. The resistance of the monolayers were (vector) 346±44 ohms/cm^2 (mean±se, n=12) and (kinase) 354±62 ohms/cm^2 (mean±se, n=12). Whole-cell Cl^− currents in CFPAC—I cells were measured at +40 mV as previously described using an intracellular Ca^2+-BAPTA buffer to clamp free [Ca^2+] to 0.5 μM [8]. One possibility is that Ins(3,4,5,6)P4 originates by phosphorylation of an InsP3 precursor. […] Control whole-cell Cl^− current (54±3 pA/pF, n—17) was reduced to 24±3 pA/pF (n=7) by 10 μM Ins(3,4,5,6)P4.

In test [3] the test system is calcium-activated Cl− channels. As to conditions: read-out: sensitivity of calcium-activated Cl− channels to Ins(3,4,5,6)P4 (IC50); cited from earlier work.

On to `O=P(O)(O)OC1[C@@H](OP(=O)(O)O)[C@H](OP(=O)(O)O)C(O)[C@H](OP(=O)(O)O)[C@H]1OP(=O)(O)O` (stereo partly shown) [Ins(1,3,4,5,6)P5, inositol 1,3,4,5,6-pentakisphosphate], for which the “product of ADP-dependent dephosphorylation” value in test [1] (5 mM ADP, trace amounts of substrate) is “dephosphorylated to an [^3H]InsP4 peak co-eluting upon HPLC with a standard of Ins(3,4,5,6)P4”. Further, the Vmax for dephosphorylation in test [1] (with Ins(1,3,4)P3 present) amounted to 82 pmol/μg protein/min.

Take `O=P(O)(O)OC1C(O)C(O)C(OP(=O)(O)O)C(OP(=O)(O)O)C1OP(=O)(O)O` (stereo not shown) [Ins(3,4,5,6)P4, inositol 3,4,5,6-tetrakisphosphate]: the “whole-cell Cl− current” value in test [2] was determined as 24±3 pA/pF. The 50% inhibitory concentration (IC50) in test [3] was 3 µM.

One may read the IC50 as the midpoint of a concentration-inhibition curve.
